Like-named read-outs stand apart in the source and are kept apart here.
Experiments:
[1] = tested on: W2 (CQ^R) P. falciparum strain; experiment: In vitro fluorescence (Sybr Green I) growth inhibition assay, W2 strain; assay type: cell-based; conditions: Plasmodium falciparum
[2] = tested on: P. falciparum strain TM91C235; conditions: cited from earlier work; further: key: S = sensitive; R = resistant; S/R = intermediate level of resistance
[3] = tested on: D6 (CQ^S) P. falciparum strain; experiment: In vitro fluorescence (Sybr Green I) growth inhibition assay, D6 strain; assay type: cell-based; conditions: Plasmodium falciparum
Source text: (§1) One exemplary method for measuring inhibitory effects of RCQ compound in vitro has been reported by Smilkstein et al. (Antimicrob. Agents Chemother., 48(5):1803-1806, 2004). This method employs fluorescent detection of the level of parasitemia in cultured red blood cells and can be automated for high-throughput screening of antimalarial RCQs. This exemplary method allows the inhibitory agent (such as a RCQ) to be in contact with the parasite for an entire developmental cycle without purine starvation, which is in contrast to the traditional ^3H-hypoxanthine method (Desjardins et al., Antimicrob. Agents Chemother., 16(6):710-718, 1979). Briefly, to perform the Smilkstein et al. method, an initial parasitemia of approximately 0.2% is attained by adding uninfected red blood cells (RBCs) to a stock culture of Plasmodium sp.-infected RBCs. […] After a period of incubation (such as about 72 hours), a sufficient amount (e.g., 100 μL) of a fluorescent DNA binding dye-detergent mixture (e.g., Sybr Green I dye-detergent mixture) to lyse cells and bind to DNA is added to the reactions. Because uninfected RBCs have no DNA, only parasite DNA (in infected RBCs) is available for binding to the fluorescent dye (e.g., Sybr Green I). Samples are then incubated in the dark for a period of time (e.g., one hour), followed by measurement of levels of fluorescence. For Sybr Green I, excitation and emission wavelength are 485 and 530 nm, respectively. Fluorescence readings, which represent the amount of parasite DNA in the sample, can be plotted against the Log [drug] and fit to a curve by nonlinear regression to obtain the IC50 value for the tested compound.
(§2) An in vitro fluorescence assay for determining IC50 of antimalarial drugs was performed as previously described by Smilkstein et al. (Antimicrob. Agents Chemother., 48(5):1803-1806, 2004). This relatively low-cost procedure can be automated for high-throughput screening of the antimalarial activities of RCQs described herein. Advantageous, this method also allows the tested agent (e.g, a RCQ) to be in contact with the parasite for an entire developmental cycle without purine starvation (which occurs with the commonly used ^3H-hypoxanthine method; see, e.g., Desjardins et al., Antimicrob. Agents Chemother., 16, (6):[…], 1979).
(§3) Briefly, an initial parasitemia of approximately 0.2% was attained by addition of uninfected red blood cells to a stock culture of cells infected with Dd2 (CQ^R) or D6 (CQ^S) P. falciparum strains. A 10 mM RCQ_02 solution (in DMSO) was prepared. RCQ_02 (at a final concentration from 10^−11 to 10^−4 M) and infected red blood cells (at a final concentration of 2% (v/v)) were mixed in 100 μL samples in individual wells of a 96-well plate. Each sample was prepared in triplicate. A triplicate set of reactions containing CQ (instead of RCQ_02) was included as a control. After a 72 hour incubation period, Sybr Green I dye-detergent mixture (100 μL) was added to each reaction. The samples were further incubated for an hour in the dark, and then placed in a 96-well fluorescence plate reader (Gemini-EM, […]) and analyzed with excitation and emission wavelength bands at 485 and 530 nm, respectively. Fluorescence readings were plotted against the Log [drug], and curve fitting performed by nonlinear regression to find the IC50 value.

[4] = tested on: P. falciparum strain FCR3; conditions: cited from earlier work; further: key: S = sensitive; R = resistant; S/R = intermediate level of resistance
[5] = pH 5.7; Dorn et al., Xu et al.; cited from earlier work
[6] = tested on: P. falciparum strain D6; conditions: cited from earlier work; further: key: S = sensitive; R = resistant; S/R = intermediate level of resistance
[7] = tested on: P. falciparum strain 3D7; conditions: cited from earlier work; further: key: S = sensitive; R = resistant; S/R = intermediate level of resistance
[8] = tested on: P. falciparum strain W2; conditions: cited from earlier work; further: key: S = sensitive; R = resistant; S/R = intermediate level of resistance
[9] = tested on: Dd2 (CQ^R) P. falciparum strain; experiment: In vitro fluorescence (Sybr Green I) growth inhibition assay, Dd2 strain; assay type: cell-based; conditions: Plasmodium falciparum
Source text: as §1, §2, §3

[10] = tested on: P. falciparum strain Dd2; conditions: cited from earlier work; further: key: S = sensitive; R = resistant; S/R = intermediate level of resistance
[11] = tested on: mitogen-induced murine spleen lymphocytes; assay type: cell-based; conditions: LC50; mouse spleen lymphocytes; 72 hours + 24 hours resazurin
Procedure: Mouse spleen lymphocytes were isolated from C57B1/6J mice by teasing tissues on a metallic sieve screen. […] Two hundred (200) μl isolated cells were then seeded in separate wells of a 96-well flat-bottom tissue culture plate at a density of 2×10^5 cells per well. […] After 72 hours incubation in a humidified atmosphere at 37° C. and 5% CO2, a solution of resazurin PBS was added to a final concentration 10 μM, and the plates were returned to the incubator for another 24 hours. Resazurin is a substrate which changes color in response to metabolic activity (such as, living cells). […] LC50 values were determined from plots of florescence versus drug concentration using non-linear regression by Prism software.

[12] = Heme binding by UV-VIS spectrophotometric titration (association constant); conditions: similar methodologies as for RCQ_02
Source text: Optionally, heme binding of RCQ compounds can be determined by any method known in the art, including, for example, spectrophotometric methods, like UV-VIS spectroscopy or NMR spectroscopy. Methods of measuring heme binding to a variety of molecules using the UV-VIS spectrum have been described (see, e.g., Xu et al., J. Inorg. Biochem., 86 (2-3):617-625, 2001; Xu et al., Antimicrob. Agents Chemother., 46(1):144-150, 2002). Generally, a heme-binding compound (such as a disclosed RCQ) is mixed in increasing concentration with heme (or a heme model compound, such as porphyrin or metalloporphyrin) and the absorbance spectrum is measured from the ultraviolet region well into the visible region (from about 300 nm to about 750 nm). This spectral range includes the so-called Soret and Q-band regions that arise from porphyrin or metalloporphyrin absorbance. Upon interaction between a heme-binding compound and heme (or a heme model compound, such as porphyrin or metalloporphyrin), decreased absorbance in the Soret region is observed. […]
In particular examples, the formation of heme-RCQ complexes can be determined by UV-VIS spectrophotometric titration, using a variety of commercially available spectrophotometers (such as a Varian-Cary 3E spectrophotometer). […] Optionally, pH can be monitored throughout the procedure to ensure that it remains unchanged. […]

For `CCN(CC)CCCC(C)Nc1ccnc2cc(Cl)ccc12` (centres unmarked) [CQ, chloroquine], the IC50 ([1]; W2, read-out: IC50 (nM) W2 (CQ^R)) is given as 250 nM, the “Drug susceptibility, strain TM91C235” value [2] is given as “R” and the IC50 ([3]; D6, 72 h) is given as 6.5 nM. For the same compound, the IC50 ([3]; D6, read-out: IC50 (nM) D6 (CQ^S)) was 6.9 nM, the “Drug susceptibility, strain FCR3” value [4] was “R” and the “association constant reported for CQ.heme2” value [5] was about 400000 M⁻¹. For the same compound, the “Drug susceptibility, strain D6” value [6] was “S”, the “Drug susceptibility, strain 3D7” value [7] was “S” and the “Drug susceptibility, strain W2” value [8] was “R”. For the same compound, the IC50 ([9]; DD2, 72 h) was 102 nM, the IC50 ([9]; DD2, read-out: IC50 (nM) Dd2 (CQ^R)) was 102 nM and the “Drug susceptibility, strain Dd2” value [10] was “R”.

In the case of `Clc1ccc2c(NCCN3CCN(C(c4ccccc4)c4ccccc4)CC3)ccnc2c1` [RCQ_31], the IC50 ([1]; W2, Table 13, growth inhibition, read-out: IC50 (nM) W2 (CQ^R)) is reported as 4.3 nM, the “Cytotoxicity” value [11] is reported as 1900 nM and the IC50 ([3]; D6, Table 13, growth inhibition, read-out: IC50 (nM) D6 (CQ^S)) is reported as 1 nM. For the same compound, the heme association constant [12] was 500000 M⁻¹ and the IC50 ([9]; DD2, Table 13, growth inhibition, read-out: IC50 (nM) Dd2 (CQ^R)) was 3.6 nM.

Reference: US9493420B2, “Quinoline derivatives and uses thereof” (Portland State University, priority 2005, dated 2016)
